We go through 15 molecules from ChEMBL document CHEMBL1926647, “Discovery of 4-aminomethylphenylacetic acids as γ-secretase modulators via a scaffold design approach” (Bioorg Med Chem Lett, 2011).

Active and inactive are the calls of the source. No cut-off for these calls is given here. A value given as a limit tells only on which side of the number the result lay.

Data set [1] relates to Mus musculus. Briefly: Inhibition of gamma-secretase-mediated cleavage of APP in wild type CF1 mouse brain assessed as inhibition of amyloid beta42 production at 30 mg/kg, po after 4 hrs by ELISA. Format: functional. As to conditions: for inhibition in vivo at 30 mg/kg: Mus musculus, CF1, Brain, po, 4 h. (An ELISA detects its analyte on a solid surface through an enzyme-linked reagent.)

Data set [2] can be described thus: Modulation of gamma-secretase expressed in CHO cells co-expressing APP V717F mutant assessed as reduction in amyloid beta42 production after 17 hrs by ELISA. Type of data set: cell-based.
Data set [3] is described as follows: Drug uptake in wild type CF1 mouse brain at 30 mg/kg, po after 4 hrs. Also noted: dose 30 mg/kg, route oral. Format: ADME, organism-based. The settings on record: read-out: Drug uptake.
Data set [4] is described as follows: Drug uptake in wild type CF1 mouse plasma at 30 mg/kg, po after 4 hrs. Format: ADME, organism-based. On the set-up: dose 30 mg/kg, route oral.
Data set [5] is described as follows: Modulation of gamma-secretase-mediated cleavage of APP assessed as reduction in amyloid beta42 production.
Data set [6] relates to CHO. Briefly: Modulation of gamma-secretase expressed in CHO cells co-expressing APP V717F mutant assessed as increase in amyloid beta38 secretion after 17 hrs by ELISA. Type of data set: cell-based.
The nature of data set [7]: Drug uptake in wild type CF1 mouse brain at 50 mg/kg, po after 4 hrs. Format: ADME, organism-based. On the set-up: dose 50 mg/kg, route oral. As to conditions: read-out: Drug uptake.
A short description of data set [8]: Drug uptake in wild type CF1 mouse plasma at 50 mg/kg, po after 4 hrs. Type of data set: ADME, organism-based. Also noted: dose 50 mg/kg, route oral.
Data set [9] relates to Mus musculus. Briefly: Inhibition of gamma-secretase-mediated cleavage of APP in wild type CF1 mouse brain assessed as inhibition of amyloid beta42 production at 50 mg/kg, po after 4 hrs by ELISA. Type of data set: functional.
Data set [10] concerns CHO. Briefly: Modulation of gamma-secretase expressed in CHO cells co-expressing APP V717F mutant assessed as effect on amyloid beta40 production after 17 hrs by ELISA. Format: cell-based.
For data set [11], the system named is Mus musculus. Briefly: Inhibition of gamma-secretase-mediated cleavage of APP in orally dosed wild type CF1 mouse brain assessed as inhibition of amyloid beta42 production after 4 hrs by ELISA. Format: functional, organism-based.

The term inhibition in vivo denotes how much of the control response was suppressed. By EC50 is commonly meant the concentration giving half of the maximal effect. Regarding `CC(C)CCC(c1ccc(C(C)(C)C(=O)O)cc1-c1ccc(C(F)(F)F)cc1)N1CCC(C(F)(F)F)CC1` (stereo not given), in the data set with Mus musculus [1], the inhibition in vivo at 30 mg/kg came to 20%. Besides, the EC50 in [2] is 0.46 µM. In addition, the values for the concentration at 4 h in [3] and in data set [4] were 13 µM and 21 µM, respectively.

Regarding `CC(C)CCC(c1ccc(CC(=O)O)cc1-c1ccc(C(F)(F)F)cc1)N1CCCC(C(F)(F)F)C1` (mixture of isomers), the concentration giving a half-maximal response (EC50) in data set [2] was 0.52 µM.

Consider `O=C(O)C1(c2ccc(-c3ccc(Cl)c(Cl)c3)c(F)c2)CC1`, for which, in data set [5], the EC50 was determined as 40 µM.

As a reminder, the IC50 is the concentration at which inhibition is half-maximal. On to `CC(C)(C)CC(c1ccc(CC(=O)O)cc1-c1ccc(C(F)(F)F)cc1)N1CCC(C(F)(F)F)CC1` (single isomer, unassigned; enantiomer 1), for which the “inhibition (INH)” value in the data set with Mus musculus [1] (30 mg/kg) came to 25%. Moreover, the IC50 in data set [2] was 0.7 µM.

For `CC(C)CCC(c1ccc(C(CC(C)C)C(=O)O)cc1-c1ccc(C(F)(F)F)cc1)N1CCC(C(F)(F)F)CC1` (stereo not given), the inhibition in vivo at 30 mg/kg in the data set with Mus musculus [1] is 21%. For the same molecule, in [2], the EC50 turned out to be 0.21 µM. For the same molecule, the concentration at 4 h in data set [3] was 4 µM; in [4], 14 µM.

For the molecule `CC(C)CCC(NC1CCC(C(C)(C)C)CC1)c1ccc(CC(=O)O)cc1-c1ccc(C(F)(F)F)cc1` (stereo not given), the EC50 in data set [2] is 0.45 µM.

Regarding `CC(C)CCN(Cc1ccc(CC(=O)O)cc1-c1ccc(F)cc1)[C@H]1CC[C@H](C(C)(C)C)CC1`, the EC50 in data set [2] is 5.6 µM.

In the case of `CC(C)CCC(c1ccc(CC(=O)O)cc1-c1ccc(C(F)(F)F)cc1)N1CCC(C)CC1` (stereo not given), the EC50 in data set [2] is 10 µM.

As to `CC(C)CCC(c1ccc(C(C)C(=O)O)cc1-c1ccc(C(F)(F)F)cc1)N1CCC(C(F)(F)F)CC1` (stereo not given), the inhibition in vivo at 30 mg/kg in the data set with Mus musculus [1] came to 35%. For the same molecule, the half-maximal effective concentration (EC50) in [2] amounted to 0.34 µM. Further, the concentration at 4 h in data set [3] was determined as 13 µM; in [4] it was 22 µM.

Turning to `CC(C)CCN(Cc1ccc(CC(=O)O)cc1-c1ccc(C(F)(F)F)cc1)c1ccc(C(F)(F)F)cc1`, the result in the data set on CHO [6] was Active. Further, the concentration at 4 h in [7] came to 0.6 µM; in data set [8], 15 µM. The concentration giving a half-maximal response (EC50) in data set [2] came to 1.5 µM. Besides, in the data set with Mus musculus [9], the inhibition entry is “inactive”. Further, the outcome in the data set on CHO [10] was inactive.

On to `CC(C)(C)CC(c1ccc(CC(=O)O)cc1-c1ccc(C(F)(F)F)cc1)N1CCC(C(F)(F)F)CC1` (racemic), for which the inhibition result in the data set with Mus musculus [11] was “Dose-dependent effect”.

In the case of `CC(C)CCC(c1ccc(CC(=O)O)cc1-c1ccc(C(F)(F)F)cc1)N1CC[C@H](F)C1` (stereo not given in full), the EC50 in data set [2] turned out to be 5.9 µM.

With `CC(C)CCC(c1ccc(CC(=O)O)cc1-c1ccc(C(F)(F)F)cc1)N1CC[C@@H](F)C1` (stereo not given in full), the concentration for a half-maximal effect (EC50) in [2] is greater than 10 µM.

In the case of `O=C(O)Cc1ccc(C(CCC(F)(F)F)N2CCC(C(F)(F)F)CC2)c(-c2ccc(C(F)(F)F)cc2)c1` (stereo not given), the EC50 in data set [2] turned out to be 1.4 µM.

Regarding `O=C(O)Cc1ccc(CN2CCC(C(F)(F)F)CC2)c(-c2ccc(C(F)(F)F)cc2)c1`, the EC50 in data set [2] was greater than 10 µM.
